Test results: ChEMBL document CHEMBL1649218, “New treatment option for second-stage African sleeping sickness: in vitro and in vivo efficacy of aza analogs of DB289” (Antimicrob Agents Chemother, 2009)
Converted amounts (≈) assume the structure as drawn. The source made the active and inactive calls. The rule behind the calls is not given here.

How the values were obtained:
[1] = test system: Trypanosoma brucei rhodesiense; experiment: Antitrypanosomal activity against wild-type Trypanosoma brucei rhodesiense STIB900 infected in NMRI mouse assessed as cure from infection at 25 mg/kg, po for 4 days; type: functional, organism-based; set-up: dose 25 mg/kg
[2] = test system: Trypanosoma brucei rhodesiense; experiment: Antitrypanosomal activity against wild-type Trypanosoma brucei rhodesiense STIB900 infected in NMRI mouse assessed as survival of mouse at 25 mg/kg, po for 4 days; type: functional
[3] = test system: Trypanosoma brucei rhodesiense; experiment: Antitrypanosomal activity against wild-type Trypanosoma brucei rhodesiense STIB900 infected in NMRI mouse assessed as survival of mouse at 5 mg/kg, po for 4 days; type: functional
[4] = test system: Trypanosoma brucei brucei; experiment: Antitrypanosomal activity against Trypanosoma brucei brucei GVR35 infected in NMRI mouse CNS model assessed as survival of mouse at 100 mg/kg, po for 5 days; type: functional
[5] = test system: Trypanosoma brucei rhodesiense; experiment: Antitrypanosomal activity against wild-type Trypanosoma brucei rhodesiense STIB900 infected in NMRI mouse assessed as cure from infection at 5 mg/kg, po for 4 days; type: functional, organism-based; set-up: dose 5 mg/kg
[6] = test system: Trypanosoma brucei rhodesiense; experiment: Antitrypanosomal activity against wild-type Trypanosoma brucei rhodesiense STIB900 infected in NMRI mouse assessed as cure from infection at 2.5 mg/kg, po for 4 days; type: functional, organism-based; set-up: dose 2.5 mg/kg
[7] = test system: Trypanosoma brucei rhodesiense; experiment: Antitrypanosomal activity against wild-type Trypanosoma brucei rhodesiense STIB900 infected in NMRI mouse assessed as survival of mouse at 2.5 mg/kg, po for 4 days; type: functional
[8] = test system: Trypanosoma brucei brucei; experiment: Antitrypanosomal activity against Trypanosoma brucei brucei GVR35 infected in NMRI mouse CNS model assessed as cure from infection at 100 mg/kg, po for 5 days; type: functional, organism-based; set-up: dose 100 mg/kg
[9] = test system: Trypanosoma brucei brucei; experiment: Antitrypanosomal activity against Trypanosoma brucei brucei GVR35 infected in NMRI mouse CNS model assessed as cure from infection at 10 mg/kg, po for 10 days; type: functional, organism-based; set-up: dose 10 mg/kg
[10] = test system: Trypanosoma brucei brucei; experiment: Antitrypanosomal activity against Trypanosoma brucei brucei GVR35 infected in NMRI mouse CNS model assessed as survival of mouse at 50 mg/kg, po for 5 days; type: functional
[11] = test system: Trypanosoma brucei brucei; experiment: Antitrypanosomal activity against Trypanosoma brucei brucei GVR35 infected in NMRI mouse CNS model assessed as survival of mouse at 25 mg/kg, po for 5 days; type: functional
[12] = test system: Trypanosoma brucei brucei; experiment: Antitrypanosomal activity against Trypanosoma brucei brucei GVR35 infected in NMRI mouse CNS model assessed as survival of mouse at 50mg/kg, po for 10 days; type: functional
[13] = test system: Trypanosoma brucei brucei; experiment: Antitrypanosomal activity against Trypanosoma brucei brucei GVR35 infected in NMRI mouse CNS model assessed as survival of mouse at 25 mg/kg, po for 10 days; type: functional
[14] = test system: Trypanosoma brucei brucei; experiment: Antitrypanosomal activity against Trypanosoma brucei brucei GVR35 infected in NMRI mouse CNS model assessed as survival of mouse at 10 mg/kg, po for 10 days; type: functional
[15] = test system: Trypanosoma brucei brucei; experiment: Antitrypanosomal activity against Trypanosoma brucei brucei GVR35 infected in NMRI mouse CNS model assessed as survival of mouse at 75 mg/kg, po for 5 days; type: functional
[16] = test system: Trypanosoma brucei rhodesiense; experiment: Antitrypanosomal activity against wild-type Trypanosoma brucei rhodesiense STIB900 infected in NMRI mouse assessed as cure from infection at 50 mg/kg, po for 4 days; type: functional, organism-based; set-up: dose 50 mg/kg
[17] = test system: Trypanosoma brucei rhodesiense; experiment: Antitrypanosomal activity against wild-type Trypanosoma brucei rhodesiense STIB900 infected in NMRI mouse assessed as survival of mouse at 50 mg/kg, po for 4 days; type: functional
[18] = test system: Trypanosoma brucei brucei; experiment: Antitrypanosomal activity against Trypanosoma brucei brucei GVR35 infected in NMRI mouse CNS model assessed as cure from infection at 50 mg/kg, po for 5 days; type: functional, organism-based; set-up: dose 50 mg/kg
[19] = test system: Trypanosoma brucei brucei; experiment: Antitrypanosomal activity against Trypanosoma brucei brucei GVR35 infected in NMRI mouse CNS model assessed as cure from infection at 25 mg/kg, po for 5 days; type: functional, organism-based; set-up: dose 25 mg/kg
[20] = test system: Trypanosoma brucei brucei; experiment: Antitrypanosomal activity against Trypanosoma brucei brucei GVR35 infected in NMRI mouse CNS model assessed as cure from infection at 25 mg/kg, po for 10 days; type: functional, organism-based; set-up: dose 25 mg/kg
[21] = test system: Trypanosoma brucei rhodesiense; experiment: Antitrypanosomal activity against wild-type Trypanosoma brucei rhodesiense STIB900 by Alamar blue assay; type: functional, organism-based
[22] = test system: Trypanosoma brucei rhodesiense; experiment: Antitrypanosomal activity against pentamidine-resistant Trypanosoma brucei rhodesiense STIB900 by Alamar blue assay; type: functional, organism-based
[23] = test system: Trypanosoma brucei rhodesiense; experiment: Antitrypanosomal activity against melasoprol-resistant Trypanosoma brucei rhodesiense STIB900 by Alamar blue assay; type: functional, organism-based
[24] = test system: Trypanosoma brucei gambiense; experiment: Antitrypanosomal activity against Trypanosoma brucei gambiense K03048 by Alamar blue assay; type: functional, organism-based
[25] = test system: Trypanosoma brucei gambiense; experiment: Antitrypanosomal activity against Trypanosoma brucei gambiense ITMAP141267 by Alamar blue assay; type: functional, organism-based
[26] = test system: Trypanosoma brucei gambiense; experiment: Antitrypanosomal activity against Trypanosoma brucei gambiense STIB930 by Alamar blue assay; type: functional, organism-based
[27] = test system: Trypanosoma brucei brucei; experiment: Antitrypanosomal activity against Trypanosoma brucei brucei BS221 by Alamar blue assay; type: functional, organism-based
[28] = test system: Trypanosoma brucei brucei; experiment: Antitrypanosomal activity against Trypanosoma brucei brucei AT1KO by Alamar blue assay; type: functional, organism-based
[29] = test system: Trypanosoma brucei rhodesiense; experiment: Ratio of IC50 for pentamidine-resistant Trypanosoma brucei rhodesiense STIB900 to IC50 for wild-type Trypanosoma brucei rhodesiense STIB900; type: functional
[30] = test system: Trypanosoma brucei rhodesiense; experiment: Ratio of IC50 for melasoprol-resistant Trypanosoma brucei rhodesiense STIB900 to IC50 for wild-type Trypanosoma brucei rhodesiense […]; type: functional
[31] = Ratio of IC50 for Trypanosoma brucei gambiense K03048 to IC50 for wild-type Trypanosoma brucei rhodesiense STIB900; type: functional
[32] = Ratio of IC50 for Trypanosoma brucei gambiense ITMAP141267 to IC50 for wild-type Trypanosoma brucei rhodesiense […]; type: functional
[33] = Ratio of IC50 for Trypanosoma brucei gambiense STIB930 to IC50 for wild-type Trypanosoma brucei rhodesiense […]; type: functional
[34] = test system: Trypanosoma brucei brucei; experiment: Ratio of IC50 for Trypanosoma brucei brucei AT1KO to IC50 for Trypanosoma brucei brucei BS221; type: functional
[35] = test system: Trypanosoma brucei rhodesiense; experiment: Antitrypanosomal activity against wild-type Trypanosoma brucei rhodesiense STIB900 infected in NMRI mouse assessed as survival of mouse at 20 mg/kg, ip for 4 days; type: functional; details: route intraperitoneal
[36] = test system: Trypanosoma brucei rhodesiense; experiment: Antitrypanosomal activity against wild-type Trypanosoma brucei rhodesiense STIB900 infected in NMRI mouse assessed as survival of mouse at 5 mg/kg, ip for 4 days; type: functional; details: route intraperitoneal
[37] = test system: Trypanosoma brucei rhodesiense; experiment: Antitrypanosomal activity against wild-type Trypanosoma brucei rhodesiense STIB900 infected in NMRI mouse assessed as cure from infection at 100 mg/kg, po for 4 days; type: functional, organism-based; set-up: dose 100 mg/kg
[38] = test system: Trypanosoma brucei rhodesiense; experiment: Antitrypanosomal activity against wild-type Trypanosoma brucei rhodesiense STIB900 infected in NMRI mouse assessed as survival of mouse at 100 mg/kg, po for 4 days; type: functional

CO/N=C(/N)c1ccc(-c2ccc(-c3ccc(/C(N)=N/O)cn3)o2)nc1
Activity [1]: Active
MSD [2]: >61 days
MSD [3]: 29.7 days
MSD [4]: >140.4 days
Activity [5]: inactive

CO/N=C(\N)c1ccc(-c2ccc(-c3ccc(/C(N)=N/OC)cn3)o2)cc1
Activity [1]: Active
Activity [6]: inactive
MSD [2]: >60 days
MSD [3]: >50.25 days
MSD [7]: 19.5 days
Activity [8]: Active
Activity [9]: inactive
MSD [4]: >180 days
MSD [10]: >176.6 days
MSD [11]: 117.6 days
MSD [12]: >180 days
MSD [13]: >149.6 days
MSD [14]: 75.25 days
MSD [15]: >172 days

CONC(=N)c1ccc(-c2ccc(-c3ccc(C(=N)NOC)cc3)o2)cc1 [PAFURAMIDINE]
Activity [16]: Active
Activity [1]: Active
MSD [17]: >60 days
MSD [2]: >60 days
Activity [18]: inactive
Activity [19]: inactive
Activity [20]: inactive
MSD [4]: >167.8 days
MSD [10]: >153.6 days
MSD [11]: 75.4 days
MSD [12]: >172.2 days
MSD [13]: >146.6 days

N=C(N)c1ccc(OCCCCCOc2ccc(C(=N)N)cc2)cc1 [PENTAMIDINE]
IC50 [21]: 1.2 ng/mL (≈ 0.00352 µM)
IC50 [22]: 134 ng/mL (≈ 0.392 µM)
IC50 [23]: 124 ng/mL (≈ 0.366 µM)
IC50 [24]: 15.5 ng/mL (≈ 0.0455 µM)
IC50 [25]: 4.2 ng/mL (≈ 0.0123 µM)
IC50 [26]: 1.1 ng/mL (≈ 0.00323 µM)
IC50 [27]: 0.9 ng/mL (≈ 0.00264 µM)
IC50 [28]: 4.1 ng/mL (≈ 0.012 µM)
Ratio IC50 [29]: 113.1
Ratio IC50 [30]: 105.4
Ratio IC50 [31]: 13.1
Ratio IC50 [32]: 3.6
Ratio IC50 [33]: 0.9
Ratio IC50 [34]: 4.3
MSD [35]: >57.5 days
MSD [36]: >45 days

N=C(NO)c1ccc(-c2ccc(-c3ccc(/C(N)=N\O)cc3)o2)cc1
Activity [37]: inactive
MSD [38]: 50 days

CO/N=C(/N)c1ccc(-c2ccc(-c3ccc(/C(N)=N/O)cc3)o2)nc1
Activity [1]: Active
MSD [2]: >60 days
MSD [3]: >52.75 days
MSD [4]: >180 days
Activity [14]: Active
MSD [38]: >60 days
MSD [15]: >166 days
